Test results taken from publication PMC12041881, “Tailored phenyl ureas eradicate drug-resistant Mycobacterium tuberculosis by targeting mycolic acid cell wall assembly” (Chemical Science, 2025).

How the values were obtained:
[1] = system: 227-resistant mutants of M. tuberculosis H37rv; format: cell-based
M. tuberculosis H37Rv = format: cell-based
[2] = system: MmpL3 over- (+ATc) expressing Mtb H37Rv; format: cell-based, M. tuberculosis

Compound	IC50 [1]	estimated frequency of resistance (M. tuberculosis H37Rv)	susceptibility shift in MmpL3 over-expressing strain [2]
O=C(Nc1ccc(Cl)c(C(F)(F)F)c1)NC1CCCCC1 [Compound 227]	3.3 µM	1.5 × 10^−7	
CC[C@@H](CO)NCCN[C@@H](CC)CO [Ethambutol]			no significant shifts
